Assay results from ChEMBL document CHEMBL4118136, “The photodynamic activity of 131-[2'-(2-pyridyl)ethylamine] chlorin e6 photosensitizer in human esophageal cancer” (Bioorg Med Chem Lett, 2018).
Calls of active or inactive are those of the source. The rule behind the calls is not given here.

Columns and labels:
ECa-109 cell line [1] = experiment: Antitumor activity against human ECA109 cells xenografted in Balb/C nude mouse assessed as inhibition of tumor growth at 2 mg/kg, iv followed by irradiation at 100 J/cm2 and measured after 13 days relative to untreated control; assay type: functional; conditions: ECa-109, light or radiation study, 312 h, read-out: TGI
[2] = Induction of singlet oxygen generation assessed as DPBF chemical oxidation in DMF solution incubated for 10 to 30 secs under irradiation by UV-Vis spectrophotometry; assay type: functional; conditions: TDE = time-dependent effect
[3] = Induction of singlet oxygen generation assessed as DPBF chemical oxidation in DMF solution incubated for 10 to 30 secs under irradiation by UV-Vis spectrophotometry relative to mTHPC; assay type: functional
[4] = Induction of singlet oxygen generation assessed as singlet oxygen quantum yield by measuring DPBF chemical oxidation in DMF solution incubated for 10 to 30 secs under irradiation by UV-Vis spectrophotometry; assay type: functional
ECa-109 cell line [5] = experiment: Cytotoxicity in human ECA109 cells assessed as reduction in cell viability incubated for 24 hrs followed by irradiation with 0.5 J/cm2 red light by MTT assay; assay type: functional, cell-based; conditions: ECa-109, light or radiation study
ECa-109 cell line [6] = experiment: Cytotoxicity in human ECA109 cells assessed as reduction in cell viability incubated for 24 hrs followed by irradiation with 1 J/cm2 red light by MTT assay; assay type: functional, cell-based; conditions: ECa-109, light or radiation study
ECa-109 cell line [7] = experiment: Cytotoxicity in human ECA109 cells assessed as reduction in cell viability incubated for 24 hrs followed by irradiation with 1.5 J/cm2 red light by MTT assay; assay type: functional, cell-based; conditions: ECa-109, light or radiation study
ECa-109 cell line [8] = experiment: Cytotoxicity in human ECA109 cells assessed as reduction in cell viability incubated for 24 hrs followed by irradiation with 2 J/cm2 red light by MTT assay; assay type: functional, cell-based; conditions: ECa-109, light or radiation study
ECa-109 cell line [9] = experiment: Cytotoxicity in human ECA109 cells assessed as reduction in cell viability incubated for 24 hrs followed by irradiation with 2.5 J/cm2 red light by MTT assay; assay type: functional, cell-based; conditions: ECa-109, light or radiation study
[10] = Drug uptake in human ECA109 cells at 0.5 uM incubated for 2 to 24 hrs by fluorescence spectrometry; assay type: ADME, cell-based; conditions: eca-109, 0.5 µM, TDE = time-dependent effect
ECa-109 cell line [11] = experiment: Cytotoxicity in human ECA109 cells assessed as reduction in cell viability incubated for 24 hrs followed by irradiation with 0.5 to 2.5 J/cm2 red light by MTT assay; assay type: functional, cell-based
[12] = Dark toxicity in human ECA109 cells assessed as reduction in cell viability at 0.1 to 0.9 uM incubated for 24 hrs under dark conditions by MTT assay; assay type: cell-based; conditions: eca-109, 24 h
[13] = Drug accumulation in mitochondria of human ECA109 cells at 0.9 uM incubated for 4 hrs by mitotracker green dye based confocal microscopy; assay type: ADME; conditions: eca-109, 4 h
[14] = Drug accumulation in lysosome of human ECA109 cells at 0.9 uM incubated for 4 hrs by Lyso tracker blue green dye based confocal microscopy; assay type: ADME, subcellular; conditions: eca-109, 4 h
[15] = Drug accumulation in endoplasmic reticulum of human ECA109 cells at 0.9 uM incubated for 4 hrs by ER-green[DiOC6(3)] dye based confocal microscopy; assay type: ADME, subcellular; conditions: eca-109, 4 h
[16] = Induction of apoptosis in human ECA109 cells assessed as viable cells level in absence of irradiation by Annexin V and propidium iodide staining based flow cytometry (reference value: 99.99%); assay type: cell-based, ECa-109; conditions: read-out: Activity
ECa-109 cell line [17] = experiment: Induction of apoptosis in human ECA109 cells assessed as early apoptotic cells level in absence of irradiation by Annexin V and propidium iodide staining based flow cytometry; assay type: cell-based
ECa-109 cell line [18] = experiment: Induction of apoptosis in human ECA109 cells assessed as late apoptotic cells level in absence of irradiation by Annexin V and propidium iodide staining based flow cytometry (reference value: 0.01%); assay type: cell-based
ECa-109 cell line [19] = experiment: Induction of apoptosis in human ECA109 cells assessed as necrotic cells level in absence of irradiation by Annexin V and propidium iodide staining based flow cytometry; assay type: cell-based
ECa-109 cell line [20] = experiment: Induction of apoptosis in human ECA109 cells assessed as viable cells level measured 2 hrs after 2 J/cm2 irradiation by Annexin V and propidium iodide staining based flow cytometry (reference value: 99.99%); assay type: functional
ECa-109 cell line [21] = experiment: Induction of apoptosis in human ECA109 cells assessed as early apoptosis cells level measured 2 hrs after 2 J/cm2 irradiation by Annexin V and propidium iodide staining based flow cytometry; assay type: functional
ECa-109 cell line [22] = experiment: Induction of apoptosis in human ECA109 cells assessed as late apoptosis cells level measured 2 hrs after 2 J/cm2 irradiation by Annexin V and propidium iodide staining based flow cytometry (reference value: 0.01%); assay type: functional
ECa-109 cell line [23] = experiment: Induction of apoptosis in human ECA109 cells assessed as necrosis cells level measured 2 hrs after 2 J/cm2 irradiation by Annexin V and propidium iodide staining based flow cytometry; assay type: functional
ECa-109 cell line [24] = experiment: Induction of apoptosis in human ECA109 cells assessed as viable cells level measured 4 hrs after 2 J/cm2 irradiation by Annexin V and propidium iodide staining based flow cytometry (reference value: 99.99%); assay type: functional
ECa-109 cell line [25] = experiment: Induction of apoptosis in human ECA109 cells assessed as early apoptosis cells level measured 4 hrs after 2 J/cm2 irradiation by Annexin V and propidium iodide staining based flow cytometry; assay type: functional
ECa-109 cell line [26] = experiment: Induction of apoptosis in human ECA109 cells assessed as late apoptosis cells level measured 4 hrs after 2 J/cm2 irradiation by Annexin V and propidium iodide staining based flow cytometry (reference value: 0.01%); assay type: functional
ECa-109 cell line [27] = experiment: Induction of apoptosis in human ECA109 cells assessed as necrosis cells level measured 4 hrs after 2 J/cm2 irradiation by Annexin V and propidium iodide staining based flow cytometry; assay type: functional
ECa-109 cell line [28] = experiment: Induction of apoptosis in human ECA109 cells assessed as viable cells level measured 8 hrs after 2 J/cm2 irradiation by Annexin V and propidium iodide staining based flow cytometry (reference value: 99.99%); assay type: functional
ECa-109 cell line [29] = experiment: Induction of apoptosis in human ECA109 cells assessed as early apoptosis cells level measured 8 hrs after 2 J/cm2 irradiation by Annexin V and propidium iodide staining based flow cytometry; assay type: functional
ECa-109 cell line [30] = experiment: Induction of apoptosis in human ECA109 cells assessed as late apoptosis cells level measured 8 hrs after 2 J/cm2 irradiation by Annexin V and propidium iodide staining based flow cytometry (reference value: 0.01%); assay type: functional
ECa-109 cell line [31] = experiment: Induction of apoptosis in human ECA109 cells assessed as necrosis cells level measured 8 hrs after 2 J/cm2 irradiation by Annexin V and propidium iodide staining based flow cytometry; assay type: functional
ECa-109 cell line [32] = experiment: Induction of apoptosis in human ECA109 cells assessed as reduction in pro-caspase-3 activity measured 2 hrs after 2 J/cm2 irradiation; assay type: functional, cell-based
ECa-109 cell line [33] = experiment: Antitumor activity against human ECA109 cells xenografted in Balb/C nude mouse assessed as reduction in tumor cell per unit area at 2 mg/kg, iv followed by irradiation at 100 J/cm2 and measured after 13 days by hematoxylin-eosin staining based light microscopy relative to untreated control; assay type: functional, organism-based
ECa-109 cell line [34] = experiment: Antitumor activity against human ECA109 cells xenografted in Balb/C nude mouse assessed as increase in cell differentiation at 2 mg/kg, iv followed by irradiation at 100 J/cm2 and measured after 13 days by hematoxylin-eosin staining based light microscopy relative to untreated control; assay type: functional, organism-based
ECa-109 cell line [35] = experiment: Antitumor activity against human ECA109 cells xenografted in Balb/C nude mouse assessed as increase in megakaryocytes level at 2 mg/kg, iv followed by irradiation at 100 J/cm2 and measured after 13 days by hematoxylin-eosin staining based light microscopy relative to untreated control; assay type: functional, organism-based
ECa-109 cell line [36] = experiment: Antitumor activity against human ECA109 cells xenografted in Balb/C nude mouse assessed as increase in nuclear fission level at 2 mg/kg, iv followed by irradiation at 100 J/cm2 and measured after 13 days by hematoxylin-eosin staining based light microscopy relative to untreated control; assay type: functional, organism-based
ECa-109 cell line [37] = experiment: Induction of apoptosis in human ECA109 cells xenografted in Balb/C nude mouse at 2 mg/kg, iv followed by irradiation at 100 J/cm2 and measured after 13 days by TUNEL staining based light microscopy relative to untreated control; assay type: functional

Molecule `Oc1cccc(-c2c3nc(c(-c4cccc(O)c4)c4ccc([nH]4)c(-c4cccc(O)c4)c4nc(c(-c5cccc(O)c5)c5ccc2[nH]5)CC4)C=C3)c1` [TEMOPORFIN] has an inhibition in vivo at 2 mg/kg (ECa-109 cell line [1]) of 79%.
With `C=Cc1c(C)c2cc3nc(c(CC(=O)OC)c4[nH]c(cc5nc(cc1[nH]2)C(C)=C5CC)c(C)c4C(=O)NCCc1ccccn1)[C@@H](CCC(=O)OC)[C@@H]3C` the Activity [2] was “Tde”, the fold change (FC) [3] was 0.0193 and the Activity index [4] was 0.98. The IC50 (ECa-109 cell line [5]) was 1330 nM, the IC50 (ECa-109 cell line [6]) was 640 nM and the IC50 (ECa-109 cell line [7]) was 430 nM. The IC50 (ECa-109 cell line [8]) was 380 nM, the IC50 (ECa-109 cell line [9]) was 300 nM and the Drug uptake [10] was “Tde”. For the same molecule, the Activity (ECa-109 cell line [11]) was “Dose-dependent effect”, the Activity [12] was “Non-Toxic” and the Drug uptake [13] was “Active”. The Drug uptake [14] was “Active”, the Drug uptake [15] was “Active” and the viability [16] was 89.8%. The Activity (ECa-109 cell line [17]) was 3.16%, the Activity (ECa-109 cell line [18]) was 4.7% and the Activity (ECa-109 cell line [19]) was 2.3%. It also gave an Activity (ECa-109 cell line [20]) of 15.19%, an Activity (ECa-109 cell line [21]) of 7.15% and an Activity (ECa-109 cell line [22]) of 68.34%. For the same molecule, the Activity (ECa-109 cell line [23]) was 9.33%, the Activity (ECa-109 cell line [24]) was 13.1% and the Activity (ECa-109 cell line [25]) was 8.1%. For the same molecule, the Activity (ECa-109 cell line [26]) was 70.93%, the Activity (ECa-109 cell line [27]) was 7.87% and the Activity (ECa-109 cell line [28]) was 4.92%. For the same molecule, the Activity (ECa-109 cell line [29]) was 6.01%, the Activity (ECa-109 cell line [30]) was 85.78% and the Activity (ECa-109 cell line [31]) was 3.29%. The Activity (ECa-109 cell line [32]) was “Active”, the inhibition in vivo at 2 mg/kg (ECa-109 cell line [1]) was 92% and the Activity (ECa-109 cell line [33]) was “Active”. The Activity (ECa-109 cell line [34]) was “Active”, the Activity (ECa-109 cell line [35]) was “Active” and the Activity (ECa-109 cell line [36]) was “Active”. It also gave an Activity (ECa-109 cell line [37]) of 40%.
